Key:
[1] = tested on: human 201T lung adenocarcinoma cells (orthotopic xenografts); assay: orthotopic 201T xenografts in nude mice, mediastinal block weight; assay type: in vivo, NCr athymic nude mice; details: 60 mg/kg at days 2, 4, 6, 8, 10, 12, sacrifice day 56
Procedure: Pathogen-free 4 to 6 week-old male NCr athymic nude mice (Taconic, Germantown, N.Y.) were housed in sterilized, filter-topped cages kept in laminar flow isolators (Forma Scientific, Marietta, Ohio), and fed autoclaved food and water ad libitum. Four animals were housed in each cage. Mice were acclimated to the vivarium for one week prior to their use in study protocols. All procedures involving the mice were performed under sterile conditions in a laminar flow hood (Forma Scientific). All studies were approved by the institutional animal care and use committee.
Human PC-3 prostate cancer cells (2×10^6 cells; American Type Culture Collection CRL-1435) were inoculated subcutanteously into the flanks of nude mice in 0.1 ml HBSS (Hank's balanced salt solution) (Life Technologies). For implantation of orthotopic 201T cells, animals were fully anesthetized in a Harvard small animal anesthesia chamber using nebulized Metafane (Pitman Moore, Inc., Washington Crossing, N.J.). […] The needle was advanced through the chest wall into the lung tissue, and the tumor cell inoculum of 2×10^6 cells was then dispersed in a final volume of 0.1 ml HBSS/Matrigel (1:1 ratio). […] For tumors implanted subcutaneously, tumors were measured in a blind fashion with dial calipers, and the volume was calculated using the formula ½*π(W*L*H). […]

[2] = tested on: PC-3 cells; assay: in vitro cell growth assay, [3H]thymidine incorporation, PC-3; assay type: cell-based, human
Procedure: (§1) The human prostatic carcinoma cell line PC-3 was grown in RPMI 1640 (Life Technologies, Grand Island, […].) supplemented with 10% fetal bovine serum (“FBS”, Life Technologies). The human cell line 201T was established from a poorly differentiated lung adenocarcinoma, as previously described using the method of J. M. Siegfried et al., “Secretion of autocrine growth factors by cultured lung tumors: effects on neoplastic lung epithelial cells,” Lung Cancer, vol. 4, pp. 205–209 (1988). See also J. P. Hamide et al., “Percutaneous implantation of non-small cell lung carcinoma: technique and observations,” Academ. Radiolo., vol. 4, pp. 629–633 (1997). The cell line was grown in a medium conditioned for 48 hours by the cell line A549 (ATCC CCL-185) containing 1% FBS (HyClone Laboratories, Logan, Utah) as previously described in J. M. Siegfried, “Culture of primary lung tumors using medium conditioned by a lung carcinoma cell line,” J. Cell. Biochem., vol. 41, pp. 91–95 (1988). This medium is referred to as CM+1% FBS.
PC-3 cells were exposed to 0, 0.1, 1, 2.5, 5, and 10 μM BN-50730 in RPMI medium supplemented with 10% FBS and [^3H]thymidine (Amersham Life Science, Arlington Heights, Ill.). […] PC-3 and 201T cells were also exposed to 10 μM BN-50730 for 24, 48, 72 and 144 hours, and cell growth assessed as above. […]

[3] = tested on: 201T cells; assay: in vitro cell growth assay, [3H]thymidine incorporation, 201T; assay type: cell-based, human
Procedure: as §1
PC-3 cells were exposed to 0, 0.1, 1, 2.5, 5, and 10 μM BN-50730 in RPMI medium supplemented with 10% FBS and [^3H]thymidine (Amersham Life Science, Arlington Heights, Ill.). 201T cells were exposed to 0, 0.1, 1, 2.5, 5, and 10 μM BN-50730 in CM+1% FBS supplemented with [^3H]thymidine. […] PC-3 and 201T cells were also exposed to 10 μM BN-50730 for 24, 48, 72 and 144 hours, and cell growth assessed as above.

[4] = visual observation of side effects in treated mice; assay type: in vivo, NCr athymic nude mice; details: mice treated at any dose
[5] = tested on: PAF binding sites (microsomal intracellular membranes; synaptosomal plasma membrane); details: Marcheselli and Bazan, 1994; cited from earlier work

SMILES: COc1ccc(NC(=O)N2CCc3c(sc4c3C(c3ccccc3Cl)=NCc3nnc(C)n3-4)C2)cc1 [BN-50730, tetrahydro-4,7,8,10 methyl-1 (chloro-2 phenyl)-6 (methoxy-4 phenyl-carbomoyl)-9 pyrido [4′,3′-4,5] thieno [3,2-f] triazolo-1,2,4[4,3-α]diazepine-1,4]
- mediastinal block weight, placebo-treated vs LAU-8080-treated ([1]; p=0.011, Student's t-test): significantly larger in placebo-treated animals
- mediastinal weight vs control litter mates without tumor cell implantation ([1]; p=0.800, Student's t-test): the same as for control liter mates
- PC-3 cell proliferation, time course ([2]; 10 μM at 1, 2, 3 or 6 days, p=0.556, F-test): no effect
- PC-3 cell proliferation, concentration response ([2]; 0.01, 0.1, 1, 2.5, 5, 10 μM for 4 days, p=0.529 for 10 μM): not affected
- 201T cell growth, time course: onset of growth inhibition ([3]; 10 μM, six-day time course): growth inhibition was manifested after 72 hr of exposure
- 201T cell growth, time course curves treated vs untreated ([3]; 10 μM, up to 144 hr, p=0.081, F-test): not statistically different
- 201T cell growth, concentration response ([3]; 0.01-10 μM for four days, p<0.005 at or above 1.0 μM): concentration-dependent reduction in growth
- side effects, visual observations [4]: no apparent side effects
- displacement of PAF from microsomal membranes [5]: displace PAF from microsomal membranes
- displacement of PAF from the synaptosomal, plasma membrane [5]: not from the synaptosomal, plasma membrane

From patent publication US6979682B2, “Platelet-activating factor antagonist inhibition of angiogenesis and tumor growth induced by basic fibroblast” (Board of Supervisors of Louisiana State University and …, priority 2001, dated 2005)
